Measured values taken from ChEMBL document CHEMBL3885881, “DrugMatrix”.

Species on record: Rattus norvegicus
Experiment: DrugMatrix - Regimen: Daily Repeat
Assay type: toxicity, organism-based, Sprague-Dawley
Parameters: regimen Daily Repeat, gender Male, age 6-8 weeks
Conditions: in vivo, po, route oral GAVAGE, vehicle .5 % CMC; for BASOPHIL / EOSINOPHIL / ERYTHROCYTE COUNT / HEMATOCRIT / HEMOGLOBIN / LEUKOCYTE COUNT / LYMPHOCYTE / MEAN CORPUSCULAR HEMOGLOBIN / MEAN CORPUSCULAR HEMOGLOBIN CONCENTRATION / MEAN CORPUSCULAR VOLUME / MONOCYTE / NEUTROPHIL / PLATELET COUNT: tissue Blood; for ALANINE AMINOTRANSFERASE / ALBUMIN / ALKALINE PHOSPHATASE / ASPARTATE AMINOTRANSFERASE / BLOOD UREA NITROGEN / CHLORIDE / CHOLESTEROL / CREATINE PHOSPHOKINASE / CREATININE / GLUCOSE / PHOSPHORUS / POTASSIUM / SODIUM / TOTAL PROTEIN: tissue Plasma
[1] = 0 mg/kg, 72 h, dose level Control, time 3 day
[2] = 0 mg/kg, 120 h, dose level Control, time 5 day
[3] = 80 mg/kg, 72 h, dose level Low, time 3 day

CN(C/C=C/C#CC(C)(C)C)Cc1cccc2ccccc12 [TERBINAFINE]
BASOPHIL [1]: 0% | EOSINOPHIL [1]: 0.4% | ERYTHROCYTE COUNT [1]: 6.43 x10E6/uL | HEMATOCRIT [1]: 37.36% | HEMOGLOBIN [1]: 13.98 G/DL | LEUKOCYTE COUNT [1]: 13 x10E3/uL | LYMPHOCYTE [1]: 81.4% | MEAN CORPUSCULAR HEMOGLOBIN [1]: 21.9 pg | MEAN CORPUSCULAR HEMOGLOBIN CONCENTRATION [1]: 37.4 G/DL | MEAN CORPUSCULAR VOLUME [1]: 58.52 fL | MONOCYTE [1]: 0.4% | NEUTROPHIL [1]: 18% | PLATELET COUNT [1]: 1386 x10E3/uL | ALANINE AMINOTRANSFERASE [1]: 39.33 u/L | ALBUMIN [1]: 3.57 G/DL | ALKALINE PHOSPHATASE [1]: 283.83 u/L | ASPARTATE AMINOTRANSFERASE [1]: 69.5 u/L | BLOOD UREA NITROGEN [1]: 14.83 mg/dL | CHLORIDE [1]: 107.33 MEQ/L | CHOLESTEROL [1]: 75.17 mg/dL | CREATINE PHOSPHOKINASE [1]: 107.67 u/L | CREATININE [1]: 0.48 mg/dL | GLUCOSE [1]: 172.5 mg/dL | PHOSPHORUS [1]: 10.48 mg/dL | POTASSIUM [1]: 6.9 MEQ/L | SODIUM [1]: 152.33 MEQ/L | TOTAL PROTEIN [1]: 5.9 G/DL | BASOPHIL [2]: 0% | EOSINOPHIL [2]: 0.4% | ERYTHROCYTE COUNT [2]: 6.96 x10E6/uL | HEMATOCRIT [2]: 41.12% | HEMOGLOBIN [2]: 15.24 G/DL | LEUKOCYTE COUNT [2]: 11.06 x10E3/uL | LYMPHOCYTE [2]: 88.6% | MEAN CORPUSCULAR HEMOGLOBIN [2]: 21.96 pg | MEAN CORPUSCULAR HEMOGLOBIN CONCENTRATION [2]: 37.1 G/DL | MEAN CORPUSCULAR VOLUME [2]: 59.12 fL | MONOCYTE [2]: 0.2% | NEUTROPHIL [2]: 10.8% | PLATELET COUNT [2]: 1155.8 x10E3/uL | ALANINE AMINOTRANSFERASE [2]: 36.33 u/L | ALBUMIN [2]: 3.72 G/DL | ALKALINE PHOSPHATASE [2]: 340.33 u/L | ASPARTATE AMINOTRANSFERASE [2]: 68.33 u/L | BLOOD UREA NITROGEN [2]: 15 mg/dL | CHLORIDE [2]: 108.17 MEQ/L | CHOLESTEROL [2]: 74.67 mg/dL | CREATINE PHOSPHOKINASE [2]: 110.67 u/L | CREATININE [2]: 0.47 mg/dL | GLUCOSE [2]: 171.33 mg/dL | PHOSPHORUS [2]: 10.05 mg/dL | POTASSIUM [2]: 6.7 MEQ/L | SODIUM [2]: 155.5 MEQ/L | TOTAL PROTEIN [2]: 6.33 G/DL | BASOPHIL [3]: 0% | EOSINOPHIL [3]: 0.33% | ERYTHROCYTE COUNT [3]: 6.8 x10E6/uL | HEMATOCRIT [3]: 41.03% | HEMOGLOBIN [3]: 15.13 G/DL | LEUKOCYTE COUNT [3]: 14.73 x10E3/uL | LYMPHOCYTE [3]: 86.67% | MEAN CORPUSCULAR HEMOGLOBIN [3]: 22.37 pg | MEAN CORPUSCULAR HEMOGLOBIN CONCENTRATION [3]: 36.9 G/DL | MEAN CORPUSCULAR VOLUME [3]: 60.57 fL | MONOCYTE [3]: 0.33% | NEUTROPHIL [3]: 12.67% | PLATELET COUNT [3]: 1306.67 x10E3/uL | ALANINE AMINOTRANSFERASE [3]: 36 u/L | ALBUMIN [3]: 3.5 G/DL | ALKALINE PHOSPHATASE [3]: 332 u/L | ASPARTATE AMINOTRANSFERASE [3]: 55.67 u/L | BLOOD UREA NITROGEN [3]: 12.67 mg/dL | CHLORIDE [3]: 110.33 MEQ/L | CHOLESTEROL [3]: 64 mg/dL | CREATINE PHOSPHOKINASE [3]: 119.33 u/L | CREATININE [3]: 0.57 mg/dL | GLUCOSE [3]: 180.67 mg/dL | PHOSPHORUS [3]: 10.6 mg/dL | POTASSIUM [3]: 7.07 MEQ/L | SODIUM [3]: 155.67 MEQ/L | TOTAL PROTEIN [3]: 5.87 G/DL
